Assay results as given in article PMC7558026, “Exploring and applying the substrate promiscuity of a C-glycosyltransferase in the chemo-enzymatic synthesis of bioactive C-glycosides” (Nature Communications, 2020).
Changes are numbered by the printed parent chain. Several values for one entry are separate records, joined by “and”; a condition that tells them apart may be missing. Equal entries are not always repeated.

Key:
Assay type in all cases: biochemical, Aloe barbadensis
AbCGT = AbCGT (Aloe vera, UniProt A0A7G9P699); assay: Glycosyltransferase activity assay, purified AbCGT (wild type) with aglycon acceptors and UDP-Glc; conditions: for conversion rates, O,N,S-glycosylation / conversion rates, di-C-glycosylation / conversion rates, mono-C-glycosylation: aglycon acceptor with UDP-Glc, pH 7.4, 30 °C, up to 12 h, Reaction-1 to -3
AbCGT, sequence (A0A7G9P699 entry or part of it): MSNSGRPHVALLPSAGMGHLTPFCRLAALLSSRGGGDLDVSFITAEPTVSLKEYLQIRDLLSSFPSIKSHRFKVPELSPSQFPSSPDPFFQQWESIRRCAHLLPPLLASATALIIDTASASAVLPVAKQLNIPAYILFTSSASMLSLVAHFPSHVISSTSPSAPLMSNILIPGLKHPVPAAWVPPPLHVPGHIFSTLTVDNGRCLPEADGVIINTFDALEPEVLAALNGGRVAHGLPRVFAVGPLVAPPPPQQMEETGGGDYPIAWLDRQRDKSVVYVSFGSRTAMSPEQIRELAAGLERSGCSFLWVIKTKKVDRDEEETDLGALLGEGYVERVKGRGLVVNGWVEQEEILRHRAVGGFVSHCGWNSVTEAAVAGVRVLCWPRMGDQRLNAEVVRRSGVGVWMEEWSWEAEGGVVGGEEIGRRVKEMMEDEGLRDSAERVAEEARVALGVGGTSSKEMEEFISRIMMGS
Experimental: Due to the instability of some acceptors in the buffer of pH 11.0, the reactions were performed under the physiological conditions (pH 7.4, 30 °C) to compare the catalytic activities of AbGT27 with different substrates under the same conditions. The reactions were performed at 30 °C for up to 12 h and terminated by the addition of 200 μL of ice-cold methanol. Subsequently, samples were centrifuged at 15,000 × g for 30 min to collect the supernatant, and aliquots were analyzed by HPLC-UV/ESIMS. […] The gradient programs were used for the analysis of the reactions (Supplementary Table 6). The conversion rates of the enzyme reactions were calculated from peak areas of glycosylated products and substrates as analyzed by HPLC. To facilitate inferential statistical analysis, three parallel assays were routinely performed; the means ± SD from triplicate analyses are reported here.

AbCGT V183D = target: T1, AbCGT V183D (Aloe vera, UniProt A0A7G9P699, V183D); assay: Glycosyltransferase activity of AbCGT variant V183D
T1 sequence (A0A7G9P699 1-470 V183D): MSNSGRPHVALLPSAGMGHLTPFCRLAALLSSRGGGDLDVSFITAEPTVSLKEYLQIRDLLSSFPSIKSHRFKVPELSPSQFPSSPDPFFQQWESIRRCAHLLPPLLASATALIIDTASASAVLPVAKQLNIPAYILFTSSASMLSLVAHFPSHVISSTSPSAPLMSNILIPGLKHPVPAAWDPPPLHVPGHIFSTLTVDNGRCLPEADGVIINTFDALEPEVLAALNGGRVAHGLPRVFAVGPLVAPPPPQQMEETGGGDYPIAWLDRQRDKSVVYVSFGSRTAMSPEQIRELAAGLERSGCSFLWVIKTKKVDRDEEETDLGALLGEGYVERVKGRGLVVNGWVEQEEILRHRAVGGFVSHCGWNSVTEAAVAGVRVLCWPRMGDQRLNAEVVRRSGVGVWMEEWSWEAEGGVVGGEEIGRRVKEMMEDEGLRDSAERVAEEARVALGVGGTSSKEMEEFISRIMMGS
Experimental: (§1) The reaction mixture contained 0.5 mM sugar donors (1.0 mM for di-glycosylation), 0.25 mM aglycons, 50 mM Tris-HCl (pH 7.4), and 50‒100 μg of purified AbCGT in a final volume of 100 μL. Due to the instability of some acceptors in the buffer of pH 11.0, the reactions were performed under the physiological conditions (pH 7.4, 30 °C) to compare the catalytic activities of AbGT27 with different substrates under the same conditions. The reactions were performed at 30 °C for up to 12 h and terminated by the addition of 200 μL of ice-cold methanol. Subsequently, samples were centrifuged at 15,000 × g for 30 min to collect the supernatant, and aliquots were analyzed by HPLC-UV/ESIMS. HPLC analysis was performed on a Shiseido CAPCELL PAK C18 MG III column (250 mm × 4.6 mm I.D., 5 μm, Shiseido Co., Ltd., Japan) at a flow rate of 1 mL min^‒1. The mobile phase was a gradient elution of solvents A (0.1% formic acid aqueous solution) and B (methanol). The gradient programs were used for the analysis of the reactions (Supplementary Table 6). The conversion rates of the enzyme reactions were calculated from peak areas of glycosylated products and substrates as analyzed by HPLC. To facilitate inferential statistical analysis, three parallel assays were routinely performed; the means ± SD from triplicate analyses are reported here.
(§2) Site-saturation mutagenesis of AbCGT at residue 183 was performed by PCR using pET28a-AbCGT as a template and the corresponding degenerate primers, which are listed in Supplementary Table 5. PCR products were purified and transformed into Trans1-T1 (DE3) E. coli. The sequences of pET28a-AbCGT mutants were confirmed by sequencing, and transformed into Transetta (DE3) E. coli for heterologous expression following protein purification.

AbCGT V183E = target: T2, AbCGT V183E (Aloe vera, UniProt A0A7G9P699, V183E); assay: Glycosyltransferase activity of AbCGT variant V183E
T2 sequence (A0A7G9P699 1-470 V183E): T1 sequence (A0A7G9P699 1-470 V183D) with D183E
Experimental: as §1, §2

SMILES	conversion rates, O,N,S-glycosylation (AbCGT)	conversion rates, di-C-glycosylation (AbCGT) [%]	conversion rates, mono-C-glycosylation (AbCGT)	WT/yield of C-glycoside(%) (AbCGT; reaction-1)	WT/yield of O-glycoside(%) (AbCGT; reaction-1)	WT/yield of C-glycoside(%) (AbCGT; reaction-2)	WT/yield of O-glycoside(%) (AbCGT; reaction-2)	WT/yield of C-glycoside(%) (AbCGT; reaction-3)	WT/yield of O-glycoside(%) (AbCGT; reaction-3)	V183D/yield of C-glycoside(%) (AbCGT V183D; reaction-1)	V183D/yield of O-glycoside(%) (AbCGT V183D; reaction-1)	V183D/yield of C-glycoside(%) (AbCGT V183D; reaction-2)	V183D/yield of O-glycoside(%) (AbCGT V183D; reaction-2)	V183D/yield of C-glycoside(%) (AbCGT V183D; reaction-3)	V183D/yield of O-glycoside(%) (AbCGT V183D; reaction-3)	V183E/yield of O-glycoside(%) (AbCGT V183E; reaction-1)	V183E/yield of C-glycoside(%) (AbCGT V183E; reaction-2)	V183E/yield of O-glycoside(%) (AbCGT V183E; reaction-2)	V183E/yield of C-glycoside(%) (AbCGT V183E; reaction-3)	V183E/yield of O-glycoside(%) (AbCGT V183E; reaction-3)	other results
CC(=O)c1cccc(O)c1 [Compound 2]	71% and 72.2% and 73.1%	0	0%	0	70.1	0	73.8	0	73	0	0	0	0	0	0	0	0	0	0	0	V183E/yield of C-glycoside(%) (AbCGT V183E; reaction-1): 0%
CC(=O)c1ccc(O)cc1 [Compound 3]	70.3% and 72% and 73%	0	0%	0	70.4	0	71.9	0	71	0	0	0	0	0	0	0	0	0	0	0	V183E/yield of C-glycoside(%) (AbCGT V183E; reaction-1): 0%
CC(=O)c1cc(O)cc(O)c1 [Compound 4, 3,5-dihydroxyacetophenone]	32.6% and 34.9% and 33.8%	0	0%	1	38.8	0.8	32.4	1.3	32.9	0	0	0	0	0	0	0	0	0	0	0	V183E/yield of C-glycoside(%) (AbCGT V183E; reaction-1): 0%
CC(=O)c1c(O)cccc1O [Compound 5]	72% and 70.6% and 73%	0	16.5% and 14.3% and 13.1%	15.1	73.6	14.2	71	14.7	72.9	8.2	0	7.5	0	7.9	0	0	0	0	0	0	V183E/yield of C-glycoside(%) (AbCGT V183E; reaction-1): 0%
CC(=O)c1ccc(O)cc1O [Compound 6, 2,4-dihydroxyacetophenone]	43.8% and 46.5% and 44.5%	0	27.1% and 26.5% and 27.4%	29.2	43.5	25.9	45.7	26	47	13.9	1	12.3	1.5	13.1	1.4	0	5.5	0	6.8	0	–
CC(=O)c1c(O)cc(C)cc1O [Compound 7]	77% and 78.6% and 82.4%	0	13.9% and 12% and 15.9%	15.2	77.6	14.1	78	13.5	81.4	8	0.8	7.2	1	7.2	1.3	0	8.9	0	13.1	0	V183E/yield of C-glycoside(%) (AbCGT V183E; reaction-1): 11.1%
COc1cc(O)c(C(C)=O)c(O)c1 [Compound 13]	20.7% and 23.5% and 25.6%	0	66.9% and 65.9% and 68.6%	70.5	21.2	65	22.7	68.1	25.9	6.8	0	7.3	0	7	0	0.8	4.1	2	6	1.1	V183E/yield of C-glycoside(%) (AbCGT V183E; reaction-1): 5.7%
